Data from publication PMC6028453, “BrlR from Pseudomonas aeruginosa is a receptor for both cyclic di-GMP and pyocyanin” (Nature Communications, 2018).

How the values were obtained:
BrlR [1] = molecular target: T1, BrlR (Pseudomonas aeruginosa, UniProt Q9HUT5); experiment: Surface plasmon resonance (SPR) analysis; assay type: binding; conditions: SPR, immobilized BrlR; for Kd: steady state, 25 °C
T1 construct: His6-SUMO (N, cleaved yes); made in house; host or cells: E. coli BL21 DE3
Description: The binding affinity of diverse toxic compounds for BrlR were investigated by SPR using a BIAcore-T200 apparatus (GE Healthcare). The ligand, BrlR (20 μM in 10 mM sodium acetate, pH 4.5), was immobilized on an activated CM5 sensor chip by amine coupling (BIAcore) with 4400 response units (RU), and the unreacted sites were blocked with 1.0 M ethanolamine–HCl (pH 8.5). Steady-state binding analysis was performed with injections of different molecules at different concentrations over the immobilized BrlR surface at a flow rate of 20 μL min^−1 at 25 °C. Association was measured for 180 s, followed by 120 s of dissociation in running buffer (20 mM Hepes pH 7.5, 150 mM NaCl). The sensorgrams for specific interactions were obtained by subtracting the reference unimmobilized flow cell response from that of the sample. Since BrlR only has one binding site for pyocyanin or other toxic compounds (Fig. 5a–f), the kinetic analysis of the sensorgrams from analyte interaction with the immobilized BrlR was performed by fitting the binding curves to a 1:1 binding model. To determine the steady state KD values, equilibrium responses were plotted against analyte concentrations, and the resulting curves were fitted to the steady state model in the BIAevaluation software package, version 3.0 (GE Healthcare).

brlR transcription = experiment: qRT-PCR of brlR transcript; assay type: cell-based, P. aeruginosa PAO1; conditions: ΔphzMSH strain still produces PCA; strain PAO1
Description: PAO1 WT strains were grown under different conditions. For c-di-GMP effects, overexpression of PA4843 in PAO1 (PAO1/pHERD20T-PA4843) relative to WT cells (PAO1/ pHERD20T) was determined. When P. aeruginosa strains entered mid-log phase, arabinose was added to induce gene expression. To test pyocyanin’s effect, a P. aeruginosa PAO1 WT strain cells with high pyocyanin production was determined relative to a ΔphzA1-G1/phzA2-G2 strain not producing phenazine and a ΔphzMSH strain not producing pyocyanin.
Total RNA was extracted using a MiniBEST Universal RNA Extraction Kit (TaKaRa) and cDNA synthesis was performed using a PrimeScript RT reagent Kit (TaKaRa). Primers for RT-PCR listed in Supplementary Table 1 were designed using the program PrimerExpress (Applied Biosystems). The RT-PCR reactions were performed on a CFX96 Real-Time PCR Detection System (Bio-Rad) using SYBR Premix Ex Taq™ (TaKaRa). Expression of the target genes was normalized to the expression of 16 S RNA. The relative transcript abundance was calculated according to the 2^−ΔΔCt method. Five biological replicates were performed per sample. The data were analyzed with a one-tailed t-test (***P ≤ 0.001).

BrlR-DNA binding (PbrlR) = molecular target: T2, BrlR-DNA binding (PbrlR) (Pseudomonas aeruginosa, UniProt Q9HUT5); experiment: EMSA, wild-type BrlR with PbrlR DNA; assay type: biochemical; conditions: wild-type BrlR, increasing concentrations of compound
T2 construct: His6-SUMO (N, cleaved yes); made in house; host or cells: E. coli BL21 DE3
Description: A 6-carboxy-fluorescein (FAM)-labeled 36-bp brlR promoter DNA (PbrlR) or 80-bp mexA/mexE promoter DNA (PmexA/PmexE) probes (~0.375 pmol), BrlR protein and varying amounts of inducers were incubated in binding buffer (10 mM Tris HCl [pH 7.4], 50 mM KCl, 1 mM DTT, […] and 5 ng/mL poly [dI-dC]) for 60 min at 25 °C. Finally, glycerol was added to a concentration of 6.5%. The samples were subjected to a 5% polyacrylamide gel electrophoresis and run in 0.5 × Tris-borate-EDTA buffer at 80 V for 1 h at room temperature. Imaging and data analyses were performed using a Typhoon Scanner (GE Healthcare) and Imagequant software. The probes used are listed in Supplementary Table 1.

P. aeruginosa PAO1 = experiment: Planktonic antibiotic susceptibility testing, PAO1; assay type: cell-based, Pseudomonas aeruginosa; conditions: for decrease of CFU number (log reduction): PAO1, 50 μg/ml tobramycin 1 h; for reduction in CFU number: cells harboring pHERD20T-PA2133 (low c-di-GMP), 50 μg/ml tobramycin 1 h
Description: To determine the role of pyocyanin in antimicrobial susceptibility, P. aeruginosa strains (Supplementary Table 2) were grown at 37 °C in 20-fold diluted LB medium supplemented with or without 0.2 mM pyocyanin, which was purified from stationary phase cultures of PAO1. Tobramycin was added to the mid-log phase (OD600 = 0.8) cells suspension to a final concentration of 50 μg/ml; after 1 h, the broth was serially diluted and spread-printed onto LB agar (medium containing 300 μg/ml carbenicillin was used for the cells harboring plasmid) to determine the cell viability via CFU counts. The cell suspensions without tobramycin were set as controls. Susceptibility is expressed as a logarithmic reduction in CFU amount. The data were analyzed with a one-tailed t-test (***P ≤ 0.001).

BrlR-C = molecular target: T3, BrlR-C (Pseudomonas aeruginosa, UniProt Q9HUT5); experiment: FP competition experiment, BrlR-C; assay type: binding; conditions: 550 μM BrlR-C, 1 nM F-c-di-GMP
T3 construct: His6 (cleaved yes); made in house; host or cells: E. coli (same protocol as BrlR, induction at 18 °C)
Description: Supplementary Figure 11: FP analyses of F-c-di-GMP binding to BrlR-C. (a) Isotherms of BrlR-C binding to F-c-di-GMP. The binding experiment was carried out at 25 °C in a buffer containing 150 mM NaCl, 25 mM Tris·HCl (pH 7.5), and 1 nM F-c-di-GMP. Increasing concentrations of BrlR-C were titrated into the reaction mixture to obtain the binding isotherms. (b) Fluorescence polarization competition experiment of BrlR-C. As a control, 550 μM BrlR-C was added to the reaction tube containing 1 nM F-c-di-GMP, and different competitors were respectively added in the solution and the values of millipolarization were recorded.
(1 picture or pasted object on this page, not shown here)

BrlR [2] = molecular target: T1, BrlR; experiment: Fluorescence polarization (FP) binding assay, wild-type BrlR; conditions: 1 nM fluorescent ligand, 25 °C
From the text: The most striking feature of the BrlR–c-di-GMP complex is the c-di-GMP-binding mode. The DNA-binding domain contains two separate c-di-GMP-binding sites, and shares a mutually intercalated c-di-GMP dimer in a stacking conformation with a crystallographic symmetry related binding site (Fig. 2a–c). […] The interactions stabilizing the c-di-GMPs are different for the two binding sites (Fig. 2d, e, and details are described in Supplementary Note 1). […] This structural feature allows us to perform fluorescence polarization (FP)-based binding assays[19],[23],[24] by using a fluoresceinated c-di-GMP analog, 2′-Fluo-AHC-c-di-GMP (F-c-di-GMP), containing a fluorophore attached to one of the 2′-ribose hydroxyls (Fig. 2f).
F-c-di-GMP and F-c-di-AMP both contain a fluorophore at one of the 2′-ribose hydroxyls of c-di-GMP and c-di-AMP, respectively (Fig. 2f). To measure the binding of c-di-GMP and c-di-AMP to BrlR variants, 1 nM F-c-di-GMP or F-c-di-AMP was incubated with increasing amounts of indicated BrlR WT, BrlR mutation, or BrlR-C in reaction buffer (25 mM HEPES, 100 mM NaCl, pH 7.5) at 25 °C for 20 min. 1 nM fluorescein was incubated with BrlR WT in the same reaction buffer at 25 °C. FP measurements were conducted on a Synergy 4 Microplate Reader (BioTek) at 25 °C. All experiments were performed in triplicate. The curves were fitted to deduce binding affinities by GraphPad Prism 5.

BrlR [3] = molecular target: T4, BrlR (UniProt Q9HUT5 1-270); experiment: EMSA; pyocyanin (enhances); conditions: protein: recombinant; tags: none (His6-SUMO removed); chain copies: 4; label: 5' FAM on strand 1; blunt
T4 sequence: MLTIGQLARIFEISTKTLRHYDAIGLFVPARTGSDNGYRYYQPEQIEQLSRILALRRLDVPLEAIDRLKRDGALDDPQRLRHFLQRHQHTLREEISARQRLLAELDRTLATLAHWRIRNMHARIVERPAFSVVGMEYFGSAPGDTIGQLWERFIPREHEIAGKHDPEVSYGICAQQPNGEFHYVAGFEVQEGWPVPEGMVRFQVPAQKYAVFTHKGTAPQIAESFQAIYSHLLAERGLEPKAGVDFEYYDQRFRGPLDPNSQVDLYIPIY

[4] = molecular target: the molecule itself; experiment: crystal structure; apo-BrlR, 3.1 Å, space group P65, four BrlR molecules in the asymmetric unit; crystals from 1.8 M sodium acetate pH 7.0, 0.1 M Bis-Tris propane pH 7.0, 20 °C

`CN(C)[C@@H]1C(O)=C(C(N)=O)C(=O)[C@@]2(O)C(O)=C3C(=O)c4c(O)cccc4[C@@](C)(O)[C@H]3C[C@@H]12` [tetracycline] was tested, and the “binding to BrlR in SPR (in words)” value (BrlR [1]) was “signals were not sufficiently high”.

`O=C(O)c1cccc2nc3ccccc3nc12` [PCA, phenazine-1-carboxylic acid] was tested, and the “effect on brlR transcription” value (brlR transcription) was “could not up-regulate”.

In the case of `CCn1cc(C(=O)O)c(=O)c2cc(F)c(N3CCNCC3)cc21` [norfloxacin], the “binding to BrlR in SPR (in words)” value (BrlR [1]) is reported as “signals were not sufficiently high”.

For `Nc1ncnc2c1ncn2[C@@H]1O[C@@H]2COP(=O)(O)O[C@H]3[C@@H](O)[C@H](n4cnc5c(N)ncnc54)O[C@@H]3COP(=O)(O)O[C@H]2[C@H]1O` [c-di-AMP], the “effect on BrlR-PbrlR DNA binding (in words)” value (BrlR-DNA binding (PbrlR)) was “significantly promoted”.

For `NC[C@H]1O[C@H](O[C@H]2[C@H](O)[C@@H](O[C@H]3O[C@H](CO)[C@@H](O)[C@H](N)[C@H]3O)[C@H](N)C[C@@H]2N)[C@H](N)C[C@@H]1O` [tobramycin], the Kd (BrlR [1]) was 640 µM, the “effect on BrlR-PbrlR DNA binding (in words)” value (BrlR-DNA binding (PbrlR)) was “did not result in an observable difference” and the “decrease of CFU number (log reduction)” value (P. aeruginosa PAO1; absence of pyocyanin) was ~ 3.4 order of magnitude. The “decrease of CFU number (log reduction)” value (P. aeruginosa PAO1; presence of 0.2 mM pyocyanin) was ~ 1.5 order of magnitude, the “reduction in CFU number” value (P. aeruginosa PAO1; with addition of pyocyanin) was 1.7 order of magnitude and the “reduction in CFU number” value (P. aeruginosa PAO1; without pyocyanin) was 4.3 order of magnitude. The “competition with F-c-di-GMP binding to BrlR-C” value (BrlR-C) was “outcompeted”.

With `CNC(C)C1CCC(N)C(OC2C(N)CC(N)C(OC3OCC(C)(O)C(NC)C3O)C2O)O1` (centres unmarked) [Gentamicin] the Kd (BrlR [1]) was about 470 µM.

`O=C1OC2(c3ccc(O)cc3Oc3cc(O)ccc32)c2ccccc21` [fluorescein] gave a Kd (BrlR [2]) of 33.6 ± 1.6 µM.

`Nc1ncnc2c1ncn2[C@@H]1O[C@H](COP(=O)(O)O)[C@@H](O)[C@H]1O` [AMP] was tested, and the “binding to BrlR in SPR (in words)” value (BrlR [1]) was “does not bind”.

B1: PmexA (dsDNA)
DNA 1: ACACCTATGAATGTAAGTATTTTGCCTGCCTTCTTCGAGCCGGTGCAGCGCCTTCACGCTGCATCGGCCGCTTTCGCT
DNA 2: AGCGAAAGCGGCCGATGCAGCGTGAAGGCGCTGCACCGGCTCGAAGAAGGCAGGCAAAATACTTACATTCATAGGTGT
B1: binds (BrlR [3]).

B2: BrlR (PA4878) (natural protein)
chain: MLTIGQLARIFEISTKTLRHYDAIGLFVPARTGSDNGYRYYQPEQIEQLSRILALRRLDVPLEAIDRLKRDGALDDPQRLRHFLQRHQHTLREEISARQRLLAELDRTLATLAHWRIRNMHARIVERPAFSVVGMEYFGSAPGDTIGQLWERFIPREHEIAGKHDPEVSYGICAQQPNGEFHYVAGFEVQEGWPVPEGMVRFQVPAQKYAVFTHKGTAPQIAESFQAIYSHLLAERGLEPKAGVDFEYYDQRFRGPLDPNSQVDLYIPIY
notes: also called apo-BrlR; BrlR WT; source: E. coli BL21 DE3, purified (Ni-NTA, tag cleaved by UlpI, Source Q, Superdex 200); not shown: His6-SUMO, N-terminal, cleaved
B2 was tested, and the “stoichiometry N” value [4] was 4.

B3: PmexE (dsDNA)
DNA 1: AATCTCGTCGTTCGATTAGTTCCCTGCCGGAGCAGCCCGCAGACTTCGCCAATCCCGAAAAACCGACTGGCGGAGT
DNA 2: ACTCCGCCAGTCGGTTTTTCGGGATTGGCGAAGTCTGCGGGCTGCTCCGGCAGGGAACTAATCGAACGACGAGATT
B3: binds (BrlR [3]).
